This note sets out measurements from patent US10047086B2, “Imidazopyridines and imidazopyrazines as LSD1 inhibitors” (Incyte Corporation, priority 2014, dated 2018).

This test deals with LSD-1 enzyme (Homo sapiens (Human), UniProt O60341). Description: LANCE LSD1/KDM1A demethylase assay (LSD1 histone demethylase biochemical assay). The following applies: 1 nM LSD-1 enzyme, 1 hour preincubation at 25° C., 0.4 μM Biotin-labeled Histone H3 peptide substrate. (In general: TR-FRET usually uses a lanthanide donor and a delayed reading to cut background.)

For the compound `CN1CCC[C@@H](COc2nc(-c3ccc(C#N)cc3)c(-c3ccc4scnc4c3)n3cncc23)C1` [Example 34, (R)-4-(5-(benzo[d]thiazol-5-yl)-8-((1-methylpiperidin-3-yl)methoxy)imidazo[1,5-a]pyrazin-6-yl)benzonitrile], the IC50 is ≤ 50 nM.
Take `N#Cc1ccc(-c2cc(OC[C@@H]3CCNC3)c3cncn3c2-c2ccc3c(c2)OCCO3)cc1` [Example 16, 4-{5-(2,3-dihydro-1,4-benzodioxin-6-yl)-8-[(3R)-pyrrolidin-3-ylmethoxy]imidazo[1,5-a]pyridin-6-yl}benzonitrile]: the concentration for half-maximal inhibition (IC50) was ≤ 50 nM.
Regarding `CN(C)C1CCN(c2nc(-c3ccc(C#N)cc3)c(-c3ccc4c(c3F)n(C)c(=O)n4C)n3cncc23)CC1` [Example 109, 4-[8-[4-(dimethylamino)piperidin-1-yl]-5-(4-fluoro-1,3-dimethyl-2-oxo-2,3-dihydro-1H-benzimidazol-5-yl)imidazo[1,5-a]pyrazin-6-yl]benzonitrile], the IC50 was ≤ 50 nM.
With `COC(=O)N(C)Cc1ccc(-c2c(-c3ccc(C#N)cc3)nc(OC[C@@H]3CCCN(C)C3)c3cncn23)cc1F` [Example 48, methyl [4-(6-(4-cyanophenyl)-8-{[(3R)-1-methylpiperidin-3-yl]methoxy}imidazo[1,5-a]pyrazin-5-yl)-2-fluorobenzyl]methylcarbamate] the figure was ≤ 50 nM; with `CN(C)C1CCN(c2nc(-c3ccc(C#N)cc3)c(-c3ccc(N4CCCC4=O)nc3)n3cncc23)CC1` [Example 54, 4-{8-[4-(dimethylamino)piperidin-1-yl]-5-[6-(2-oxopyrrolidin-1-yl)pyridin-3-yl]imidazo[1,5-a]pyrazin-6-yl}benzonitrile], ≤ 50 nM; with `CN1C(=O)Cc2cc(-c3c(-c4ccc(C#N)cc4)cc(OC[C@@H]4CCNC4)c4cncn34)ccc21` [Example 12, 4-{5-(1-methyl-2-oxo-2,3-dihydro-1H-indol-5-yl)-8-[(3R)-pyrrolidin-3-ylmethoxy]imidazo-[1,5-a]pyridin-6-yl}benzonitrile], ≤ 50 nM.
For `Cc1ncc(-c2c(-c3ccc(C#N)cc3)cc(OC[C@@H]3CCCN(C)C3)c3cncn23)cc1O` [Example 76, 4-(5-(5-hydroxy-6-methylpyridin-3-yl)-8-{[(3R)-1-methylpiperidin-3-yl]methoxy}imidazo[1,5-a]pyridin-6-yl)benzonitrile] the value was ≤ 50 nM; for `CN1CCC[C@@H](COc2cc(-c3ccc(C#N)cc3)c(-c3ccc4c(c3)oc(=O)n4C)n3cncc23)C1` [Example 63, (R)-4-(5-(3-methyl-2-oxo-2,3-dihydrobenzo[d]oxazol-6-yl)-8-((1-methylpiperidin-3-yl)methoxy)imidazo[1,5-a]pyridin-6-yl)benzonitrile], ≤ 50 nM.
For `Cc1cc(-c2c(-c3ccc(C#N)cc3)cc(OC[C@@H]3CCCN(C)C3)c3cncn23)cc(F)c1CO` [Example 75, 4-(5-[3-fluoro-4-(hydroxymethyl)-5-methylphenyl]-8-{[(3R)-1-methylpiperidin-3-yl]methoxy}imidazo[1,5-a]pyridin-6-yl)benzonitrile] the value was ≤ 50 nM; for `Cn1ncc2cc(-c3c(-c4ccc(C#N)cc4)nc(OC[C@@H]4CCCN(CCO)C4)c4cncn34)cnc21` [Example 37, 4-[8-{[(3R)-1-(2-hydroxyethyl)piperidin-3-yl]methoxy}-5-(1-methyl-1H-1-pyrazolo[3,4-b]pyridin-5-yl)imidazo[1,5-a]pyrazin-6-yl]benzonitrile], ≤ 50 nM.
As to `Cc1cc(-c2c(-c3ccc(C#N)cc3)nc(OC[C@@H]3CCCN(C)C3)c3cncn23)ccc1CO` [Example 45, 4-(5-[4-(hydroxymethyl)-3-methylphenyl]-8-{[(3R)-1-methylpiperidin-3-yl]methoxy}imidazo[1,5-a]pyrazin-6-yl)benzonitrile], the IC50 was ≤ 50 nM.
On to `Cc1cc(-c2c(-c3ccc(C#N)cc3)nc(OC[C@@H]3CCCN(C)C3)c3cncn23)cnc1C` [Example 86, 4-(5-(5,6-dimethylpyridin-3-yl)-8-{[(3R)-1-methylpiperidin-3-yl]methoxy}imidazo[1,5-a]pyrazin-6-yl)benzonitrile], for which the 50% inhibitory concentration (IC50) was ≤ 50 nM.
For `Cc1ccc(-c2c(-c3ccc(C#N)cc3)cc(OC[C@@H]3CCNC3)c3cncn23)cc1` [Example 1, 4-{5-(4-methylphenyl)-8-[(3R)-pyrrolidin-3-ylmethoxy]imidazo[1,5-a]pyridin-6-yl}benzonitrile] the value was ≤ 50 nM; for `CCn1c(=O)oc2cc(-c3c(-c4ccc(C#N)cc4)nc(N4CCC(N(C)C)CC4)c4cncn34)ccc21` [Example 108, 4-[8-[4-(dimethylamino)piperidin-1-yl]-5-(3-ethyl-2-oxo-2,3-dihydro-1,3-benzoxazol-6-yl)imidazo[1,5-a]pyrazin-6-yl]benzonitrile], ≤ 50 nM; for `CN1CCC[C@@H](COc2cc(-c3ccc(C#N)cc3)c(-c3cnc(N4CCOCC4)c(F)c3)n3cncc23)C1` [Example 78, 4-(5-(5-fluoro-6-morpholin-4-ylpyridin-3-yl)-8-{[(3R)-1-methylpiperidin-3-yl]methoxy}imidazo[1,5-a]pyridin-6-yl)benzonitrile], ≤ 50 nM.
With `CN1C(=O)CCc2cc(-c3c(-c4ccc(C#N)cc4)nc(N4CCC(N(C)C)CC4)c4cncn34)ccc21` [Example 137, 4-[8-[4-(dimethylamino)piperidin-1-yl]-5-(1-methyl-2-oxo-1,2,3,4-tetrahydroquinolin-6-yl)imidazo[1,5-a]pyrazin-6-yl]benzonitrile] the figure was ≤ 50 nM.
For `CN(C)C1CCN(c2nc(-c3ccc(C#N)cc3)c(-c3ccc4c(c3)CC(O)C4)n3cncc23)CC1` (racemic) [Example 136, 4-[8-[4-(dimethylamino)piperidin-1-yl]-5-(2-hydroxy-2,3-dihydro-1H-inden-5-yl)imidazo[1,5-a]pyrazin-6-yl]benzonitrile] the value was ≤ 50 nM; for `CN1CCC[C@@H](COc2nc(-c3ccc(C#N)cc3)c(-c3ccc4c(c3)CC(O)C4)n3cncc23)C1` (stereo partly drawn) [Example 101, 4-(5-(2-hydroxy-2,3-dihydro-1H-inden-5-yl)-8-{[(3R)-1-methylpiperidin-3-yl]methoxy}imidazo[1,5-a]pyrazin-6-yl)benzonitrile], ≤ 50 nM; for `CN1CCC[C@@H](COc2nc(-c3ccc(C#N)c(F)c3)c(-c3cnc4c(cnn4C)c3)n3cncc23)C1` [Example 36, 2-fluoro-4-[8-{[(3R)-1-methylpiperidin-3-yl]methoxy}-5-(1-methyl-1H-1-pyrazolo[3,4-b]pyridin-5-yl)imidazo[1,5-a]pyrazin-6-yl]benzonitrile], ≤ 50 nM.
With `CN1CCC[C@@H](COc2nc(-c3ccc(C#N)cc3)c(-c3ccc4c(c3)ncn4C)n3cncc23)C1` [Example 28, 4-(5-(1-methyl-1H-benzimidazol-5-yl)-8-{[(3R)-1-methylpiperidin-3-yl]methoxy}imidazo[1,5-a]pyrazin-6-yl)benzonitrile], the IC50 is ≤ 50 nM.
On to `CN(C)C1CCN(c2nc(-c3ccc(C#N)cc3)c(-c3ccc4c(cnn4C)c3)n3cncc23)CC1` [Example 100, 4-[8-[4-(dimethylamino)piperidin-1-yl]-5-(1-methyl-1H-indazol-5-yl)imidazo[1,5-a]pyrazin-6-yl]benzonitrile], for which the concentration for half-maximal inhibition (IC50) was ≤ 50 nM.

A word on the IC50: it is the concentration that gives 50% inhibition. Low values mean higher potency, high ones lower potency.
